Data set [1] addresses T1, Synaptic vesicular amine transporter (Rattus norvegicus, UniProt Q01827). Nature of the data set: Displacement of [3H]-DTBZ from VMAT2 in rat striatal membrane homogenates. It counts as cell membranes, Striatum. (In a radioligand displacement assay an active substance lowers the binding of a labelled ligand.)
Data set [2] addresses T1, Synaptic vesicular amine transporter. Description: Displacement of [125I]-iodovinyl-TBZ from VMAT2 in rat striatal membrane homogenates. It counts as cell membranes, Striatum.
The nature of data set [3]: Ratio of drug level in striatum to cerebellum in iv dosed mouse after 30 mins. Particulars: in vivo, 0.5 h. Format: ADME, organism-based.
Data set [4] addresses Synaptic vesicular amine transporter (Homo sapiens, UniProt Q05940). Description: Binding affinity to VMAT2.

The values below come from ChEMBL document CHEMBL1155310, “Synthesis and evaluation of 2-amino-dihydrotetrabenzine derivatives as probes for imaging vesicular monoamine transporter-2” (Bioorg Med Chem Lett, 2009).

T1 sequence (Q01827 whole entry): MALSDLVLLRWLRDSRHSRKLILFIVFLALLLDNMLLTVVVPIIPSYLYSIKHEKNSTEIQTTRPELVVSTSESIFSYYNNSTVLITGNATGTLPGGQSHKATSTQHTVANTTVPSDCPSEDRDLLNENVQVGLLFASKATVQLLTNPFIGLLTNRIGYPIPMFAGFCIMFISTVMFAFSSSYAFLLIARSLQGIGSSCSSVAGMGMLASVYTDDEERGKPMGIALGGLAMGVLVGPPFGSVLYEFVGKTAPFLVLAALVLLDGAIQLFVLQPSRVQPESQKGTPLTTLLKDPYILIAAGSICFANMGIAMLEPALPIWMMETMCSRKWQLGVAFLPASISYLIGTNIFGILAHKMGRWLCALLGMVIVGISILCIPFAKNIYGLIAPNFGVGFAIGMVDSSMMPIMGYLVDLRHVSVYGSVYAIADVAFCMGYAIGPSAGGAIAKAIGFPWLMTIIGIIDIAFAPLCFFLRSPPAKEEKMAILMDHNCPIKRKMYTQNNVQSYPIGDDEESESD
Sequence of Synaptic vesicular amine transporter (Homo sapiens, UniProt Q05940) (Q05940 whole entry): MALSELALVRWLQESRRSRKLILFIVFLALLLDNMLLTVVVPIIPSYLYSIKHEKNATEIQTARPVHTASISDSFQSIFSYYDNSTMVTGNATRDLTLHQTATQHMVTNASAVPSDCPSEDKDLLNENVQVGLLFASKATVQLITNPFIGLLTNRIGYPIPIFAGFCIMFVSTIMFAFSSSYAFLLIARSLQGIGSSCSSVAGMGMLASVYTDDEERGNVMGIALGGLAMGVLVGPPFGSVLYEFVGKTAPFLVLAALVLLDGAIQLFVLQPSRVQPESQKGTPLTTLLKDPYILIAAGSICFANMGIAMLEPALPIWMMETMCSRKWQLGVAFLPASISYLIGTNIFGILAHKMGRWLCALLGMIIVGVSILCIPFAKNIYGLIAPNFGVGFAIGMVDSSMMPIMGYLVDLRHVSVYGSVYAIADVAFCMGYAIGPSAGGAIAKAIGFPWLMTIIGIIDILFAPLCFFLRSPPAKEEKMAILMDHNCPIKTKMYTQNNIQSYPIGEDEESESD

As a reminder, the Ki is the dissociation constant of the complex between target and ligand, obtained from inhibition or displacement. The low end stands for tighter binding, the high end for weaker binding. Consider `COc1cc2c(cc1OC)C1CC(N)C(CC(C)C)CN1CC2` (stereo unspecified), for which the Ki came out at 150 nM in data set [1] and 45 nM in data set [2].

Regarding `COc1cc2c(cc1OC)C1CC(NCCCF)C(CC(C)C)CN1CC2` (stereo unspecified), the Ki stood at 7.01 nM in data set [1] and 8.68 nM in data set [2].

Consider `CNC1CC2c3cc(OC)c(OC)cc3CCN2CC1CC(C)C` (stereo unspecified), for which the results for the Ki in data set [1] and in data set [2] were 269 nM and 199 nM, respectively.

For `COc1cc2c(cc1OC)C1CC(NCCF)C(CC(C)C)CN1CC2` (mixture of isomers), the figures for the Ki in data set [1] and in data set [2] were 230 nM and 28 nM, respectively.

With `COc1cc2c(cc1OC)C1CC(NCCF)C(CC(C)C)CN1CC2` (single isomer, unassigned; diastereomer 2), the values for the Ki in data set [1] and in data set [2] were 686 nM and 226 nM, respectively.

For `COc1cc2c(cc1OC)C1CC(NCCF)C(CC(C)C)CN1CC2` (stereo in doubt; 4-I), the inhibition constant Ki in data set [1] is 8.63 nM; in data set [2], 9.21 nM.

For the compound `COc1cc2c(cc1OCCCF)CCN1C[C@@H](CC(C)C)[C@H](O)C[C@H]21` [FLORBENAZINE], the Ki was 0.36 nM in data set [1], 0.24 nM in data set [2] and 0.1 nM in data set [4]. In addition, the Ratio in data set [3] was 4.51.
